Results on 1 compound are retold here after patent publication US11724981B2, “Cationic surfactants comprising an ether link” (Battelle Memorial Institute, priority 2018, dated 2023).

A short description of this data set: Aquatic toxicity according to Method 2007. Particulars: in vivo, Mysidopsis Bahia. An excerpt: (References: OECD Guideline for the Testing of Chemicals: BG1Luc Estrogen Receptor Transactivation Test Method for Identifying Estrogen Receptor Agonists and Antagonists, OECD Guidelines for the Testing of Chemicals, Section 4, OECD Publishing, Paris, https://doi.org/10.1787/9789264185395-en, and http://ntp.niehs.nih.gov/ntp/about_ntp/sacatm/2012/september/d_draft_oecdtg457bg1luc_508.pdf; and G. Bittner, M. Denison, C. Yang, M. Stoner and G. He, Environmental Health 2014, 13 103). They were also tested for aquatic toxicity according to Method 2007 using Mysidopsis Bahia.

By LC50 is commonly meant the concentration that kills 50% of the test population. A higher LC50 goes with a less lethal substance. In turn, `CCCCCCCCCCCCCCCC[N+](C)(C)C` [CTAB, cetyl trimethyl ammonium bromide] registered an LC50 at 96 h of 0.2 µg/mL.
